Legend:
Test in all cases: PDSP binding screen
Opioid KOR = Opioid KOR (Homo sapiens, UniProt P41145); details: for inhibition at 10 µM: read-out: Ki (nM) or % inhibition at 10 µM: KOR
[1] = biological target: Dopamine active transporter (DAT) (Homo sapiens, UniProt Q01959)
Serotonin 5-HT2C = biological target: T1, Serotonin 5-HT2C (Homo sapiens, UniProt P28335)
T1 sequence (P28335 33-458): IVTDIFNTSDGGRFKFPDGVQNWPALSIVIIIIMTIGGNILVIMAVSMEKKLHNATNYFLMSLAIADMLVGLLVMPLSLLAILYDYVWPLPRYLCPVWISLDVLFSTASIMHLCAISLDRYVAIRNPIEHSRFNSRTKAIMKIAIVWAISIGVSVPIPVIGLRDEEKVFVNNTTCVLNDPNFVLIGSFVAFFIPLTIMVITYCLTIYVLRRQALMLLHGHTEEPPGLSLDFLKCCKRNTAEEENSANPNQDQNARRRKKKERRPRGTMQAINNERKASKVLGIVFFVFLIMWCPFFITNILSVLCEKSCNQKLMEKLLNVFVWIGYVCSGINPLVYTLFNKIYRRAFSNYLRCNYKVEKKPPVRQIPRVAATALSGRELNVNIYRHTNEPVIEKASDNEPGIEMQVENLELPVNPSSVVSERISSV

Serotonin 5-HT2A = Serotonin 5-HT2A (Homo sapiens, UniProt P28223)
Sequence of Serotonin 5-HT2A (P28223 whole entry): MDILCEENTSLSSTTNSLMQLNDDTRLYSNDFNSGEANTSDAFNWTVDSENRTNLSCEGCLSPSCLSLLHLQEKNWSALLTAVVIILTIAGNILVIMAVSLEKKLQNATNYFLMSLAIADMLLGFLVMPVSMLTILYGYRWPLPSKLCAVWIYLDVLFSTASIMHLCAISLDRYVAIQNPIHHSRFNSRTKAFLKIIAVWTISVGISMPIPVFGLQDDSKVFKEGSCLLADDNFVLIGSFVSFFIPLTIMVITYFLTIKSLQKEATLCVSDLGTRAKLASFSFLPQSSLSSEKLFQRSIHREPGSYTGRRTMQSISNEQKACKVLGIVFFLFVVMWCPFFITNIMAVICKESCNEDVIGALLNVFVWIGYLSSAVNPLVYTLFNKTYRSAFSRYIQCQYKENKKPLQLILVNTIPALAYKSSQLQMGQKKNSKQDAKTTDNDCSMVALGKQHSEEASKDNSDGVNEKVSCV

Dopamine D5 = Dopamine D5 (Homo sapiens, UniProt P21918); details: for inhibition at 10 µM: read-out: Ki (nM) or % inhibition at 10 µM: D5
Sequence of Dopamine D5 (P21918 whole entry): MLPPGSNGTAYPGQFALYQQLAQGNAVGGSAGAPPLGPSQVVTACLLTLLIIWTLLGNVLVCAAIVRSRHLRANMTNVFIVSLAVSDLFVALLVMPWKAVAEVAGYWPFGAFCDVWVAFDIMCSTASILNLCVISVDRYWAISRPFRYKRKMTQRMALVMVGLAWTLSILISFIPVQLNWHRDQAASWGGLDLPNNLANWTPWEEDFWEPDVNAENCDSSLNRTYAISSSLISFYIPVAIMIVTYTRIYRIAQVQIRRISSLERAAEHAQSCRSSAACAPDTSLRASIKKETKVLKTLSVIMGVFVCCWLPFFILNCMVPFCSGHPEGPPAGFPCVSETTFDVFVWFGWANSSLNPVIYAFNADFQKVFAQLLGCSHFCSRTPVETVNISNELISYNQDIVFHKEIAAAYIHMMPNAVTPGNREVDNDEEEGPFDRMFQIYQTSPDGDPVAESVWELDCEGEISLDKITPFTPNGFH

Adrenergic alpha2B = biological target: T2, Adrenergic alpha2B (Homo sapiens, UniProt P18089)
T2 sequence (P18089 1-450): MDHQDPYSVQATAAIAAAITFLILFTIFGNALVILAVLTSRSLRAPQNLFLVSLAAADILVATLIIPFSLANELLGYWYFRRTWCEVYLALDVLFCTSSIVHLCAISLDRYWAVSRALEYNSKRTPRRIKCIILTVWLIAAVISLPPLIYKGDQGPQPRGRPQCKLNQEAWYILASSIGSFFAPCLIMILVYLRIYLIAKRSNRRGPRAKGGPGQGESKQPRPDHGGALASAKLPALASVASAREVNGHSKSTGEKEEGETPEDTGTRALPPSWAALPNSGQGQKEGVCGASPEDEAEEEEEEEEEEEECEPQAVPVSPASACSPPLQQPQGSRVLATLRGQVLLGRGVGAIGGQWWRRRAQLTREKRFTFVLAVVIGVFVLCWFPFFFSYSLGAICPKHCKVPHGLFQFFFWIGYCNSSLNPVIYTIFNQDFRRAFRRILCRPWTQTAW

Adrenergic alpha2A = biological target: T3, Adrenergic alpha2A (Homo sapiens, UniProt P08913)
T3 sequence (P08913 1-465): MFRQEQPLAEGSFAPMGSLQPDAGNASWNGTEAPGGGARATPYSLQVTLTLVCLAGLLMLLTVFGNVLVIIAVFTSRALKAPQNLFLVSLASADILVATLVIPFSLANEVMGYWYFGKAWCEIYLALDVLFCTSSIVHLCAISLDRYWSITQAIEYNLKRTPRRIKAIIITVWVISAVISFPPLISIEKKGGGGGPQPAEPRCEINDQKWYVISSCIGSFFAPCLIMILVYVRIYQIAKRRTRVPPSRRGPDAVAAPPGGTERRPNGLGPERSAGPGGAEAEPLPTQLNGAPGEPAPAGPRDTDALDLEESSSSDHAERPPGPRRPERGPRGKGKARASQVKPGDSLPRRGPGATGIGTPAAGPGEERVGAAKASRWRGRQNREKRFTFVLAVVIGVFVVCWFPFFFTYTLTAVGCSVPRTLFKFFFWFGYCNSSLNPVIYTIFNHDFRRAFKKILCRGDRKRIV

Muscarinic M2 = biological target: T4, Muscarinic M2 (Homo sapiens, UniProt P08172); details: for inhibition at 10 µM: read-out: Ki (nM) or % inhibition at 10 µM: M2
T4 sequence (P08172 1-466): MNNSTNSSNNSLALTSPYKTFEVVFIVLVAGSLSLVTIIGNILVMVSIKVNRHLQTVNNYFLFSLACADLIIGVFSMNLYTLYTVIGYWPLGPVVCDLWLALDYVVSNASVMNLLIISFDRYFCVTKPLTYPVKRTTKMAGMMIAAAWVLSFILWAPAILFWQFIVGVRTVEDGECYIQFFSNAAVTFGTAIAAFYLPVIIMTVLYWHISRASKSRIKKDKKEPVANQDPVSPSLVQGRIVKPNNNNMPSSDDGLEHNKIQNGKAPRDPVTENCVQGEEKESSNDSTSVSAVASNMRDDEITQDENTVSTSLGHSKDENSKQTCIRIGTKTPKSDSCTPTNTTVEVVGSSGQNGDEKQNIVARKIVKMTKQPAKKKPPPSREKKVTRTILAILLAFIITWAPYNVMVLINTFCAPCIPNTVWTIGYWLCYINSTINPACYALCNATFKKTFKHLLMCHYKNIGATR

Dopamine D4 = biological target: T5, Dopamine D4 (Homo sapiens, UniProt P21917)
T5 sequence (P21917 1-419): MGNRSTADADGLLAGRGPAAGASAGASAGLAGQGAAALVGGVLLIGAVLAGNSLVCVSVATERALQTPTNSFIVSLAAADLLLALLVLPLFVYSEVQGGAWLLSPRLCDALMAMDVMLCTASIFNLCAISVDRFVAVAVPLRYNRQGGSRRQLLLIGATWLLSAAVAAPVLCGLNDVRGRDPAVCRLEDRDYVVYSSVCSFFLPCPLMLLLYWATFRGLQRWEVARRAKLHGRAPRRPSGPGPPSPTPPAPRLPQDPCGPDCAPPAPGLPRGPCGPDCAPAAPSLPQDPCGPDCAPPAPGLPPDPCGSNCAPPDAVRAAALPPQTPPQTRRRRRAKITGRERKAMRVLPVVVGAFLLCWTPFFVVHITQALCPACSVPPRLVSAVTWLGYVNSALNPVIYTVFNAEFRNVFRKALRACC

Sequence of Opioid KOR (P41145 whole entry): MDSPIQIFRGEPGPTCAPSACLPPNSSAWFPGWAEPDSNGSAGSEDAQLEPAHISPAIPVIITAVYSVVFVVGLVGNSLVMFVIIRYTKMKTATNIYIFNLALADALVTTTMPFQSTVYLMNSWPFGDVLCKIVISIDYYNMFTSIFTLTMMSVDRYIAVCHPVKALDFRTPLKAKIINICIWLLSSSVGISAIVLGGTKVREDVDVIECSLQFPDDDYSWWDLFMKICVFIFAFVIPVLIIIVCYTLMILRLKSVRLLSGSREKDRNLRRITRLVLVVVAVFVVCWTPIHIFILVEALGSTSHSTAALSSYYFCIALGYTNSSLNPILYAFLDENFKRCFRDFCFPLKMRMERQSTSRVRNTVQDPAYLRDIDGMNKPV
Sequence of Dopamine active transporter (DAT) (Q01959 whole entry, species assumed): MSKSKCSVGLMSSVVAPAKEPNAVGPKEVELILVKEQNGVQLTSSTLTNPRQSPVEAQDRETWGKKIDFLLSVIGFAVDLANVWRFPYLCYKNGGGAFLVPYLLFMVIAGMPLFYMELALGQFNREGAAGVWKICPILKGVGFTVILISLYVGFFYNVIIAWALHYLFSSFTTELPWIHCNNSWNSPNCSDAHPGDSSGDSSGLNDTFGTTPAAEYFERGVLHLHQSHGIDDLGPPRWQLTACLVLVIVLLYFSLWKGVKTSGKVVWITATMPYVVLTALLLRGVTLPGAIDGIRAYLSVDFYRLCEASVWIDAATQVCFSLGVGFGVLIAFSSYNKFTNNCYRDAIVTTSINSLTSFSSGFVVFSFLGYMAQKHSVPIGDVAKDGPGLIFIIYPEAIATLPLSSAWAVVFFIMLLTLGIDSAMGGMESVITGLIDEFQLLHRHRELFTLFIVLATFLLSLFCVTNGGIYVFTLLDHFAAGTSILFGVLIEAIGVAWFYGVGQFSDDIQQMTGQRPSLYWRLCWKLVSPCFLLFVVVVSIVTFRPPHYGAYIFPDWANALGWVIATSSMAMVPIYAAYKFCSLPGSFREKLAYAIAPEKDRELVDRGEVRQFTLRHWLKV

SMILES	Ki (Opioid KOR) [nM]	Ki [1] [nM]	Ki (Serotonin 5-HT2C) [nM]	Ki (Serotonin 5-HT2A) [nM]	inhibition at 10 µM (Dopamine D5) [%]	Ki (Adrenergic alpha2B) [nM]	Ki (Adrenergic alpha2A) [nM]	inhibition at 10 µM (Muscarinic M2) [%]	Ki (Dopamine D4) [nM]	Ki (Dopamine D5) [nM]	inhibition at 10 µM (Opioid KOR) [%]	Ki (Muscarinic M2) [nM]	inhibition at 10 µM ([1]; read-out: Ki (nM) or % inhibition at 10 µM: Dopamine active transporter (DAT)) [%]	inhibition at 10 µM (Dopamine D4; read-out: Ki (nM) or % inhibition at 10 µM: D4) [%]
CCN(CCCNC(=O)c1cc2ccccc2[nH]1)CCNC(=O)c1cc(Br)cc(OC)c1OC [21d, N-(3-((2-(5-Bromo-2,3-dimethoxybenzamido)ethyl)(ethyl)amino)propyl)-1H-indole-2-carboxamide]	2330	90	2100	844	< 50	386	2140	< 50	239					
CCN(CCCNC(=O)c1ccc(-c2ccsc2)cc1)CCNC(=O)c1cc(Br)cc(OC)c1OC [21g, 5-Bromo-N-(2-(ethyl(3-(4-(thiophen-3-yl)benzamido)propyl)amino)ethyl)-2,3-dimethoxybenzamide]	170	100	354	276		571	1160	< 50	582	8690				
CCN(CCCNC(=O)c1ccsc1)CCNC(=O)c1cc(Br)cc(OC)c1OC [21i, N-(3-((2-(5-Bromo-2,3-dimethoxybenzamido)ethyl)(ethyl)amino)propyl)thiophen-e-3-carboxamide]		289	9730	1370	< 50	2950	3340	< 50	514		< 50			
CCN(CCCNC(=O)c1ccc2ccccc2c1)CCNC(=O)c1cc(Br)cc(OC)c1OC [21a, N-(3-((2-(5-Bromo-2,3-dimethoxybenzamido)ethyl)(ethyl)amino)propyl)-2-naphthamide]		89	1330	1240	< 50	577	1970	< 50	377		< 50			
CCN(CCCNC(=O)c1cc2ccccc2n1C)CCNC(=O)c1cc(Br)cc(OC)c1OC [21j, N-(3-((2-(5-Bromo-2,3-dimethoxybenzamido)ethyl)(ethyl)amino)propyl)-1-methyl-1H-indole-2-carboxamide]		390	5060	3140	< 50	646	3110		878		< 50	2970		
CCN(CCCNC(=O)c1ccc(-c2ccncc2)cc1)CCNC(=O)c1cc(Br)cc(OC)c1OC [21c, 5-Bromo-N-(2-(ethyl(3-(4-(pyridin-4-yl)benzamido)propyl)amino)ethyl)-2,3-dimethoxybenzamide]	642	57	1500	727		909	2580		2180	> 10000		1660		
CCN(CCCNC(=O)c1ccc(-c2cccs2)cc1)CCNC(=O)c1cc(Br)cc(OC)c1OC [9a, 5-Bromo-N-(2-(ethyl(3-(4-(thiophen-2-yl)benzamido)propyl)amino)ethyl)-2,3-dimethoxybenzamide]	107	87	577	222		235	1350		579	1470		1200		
CCN(CCCNC(=O)c1cn2ccccc2n1)CCNC(=O)c1cc(Br)cc(OC)c1OC [21e, N-(3-((2-(5-Bromo-2,3-dimethoxybenzamido)ethyl)(ethyl)amino)propyl)imidazo[1,2-a]pyridine-2-carboxamide]			5780	1330	< 50	2830	5570				< 50	9440	< 50	< 50
CCCN(CCCNC(=O)c1ccc(-c2cccs2)cc1)CCNC(=O)c1cc(Br)cc(OC)c1OC [20a, 5-Bromo-2,3-dimethoxy-N-(2-(propyl(3-(4-(thiophen-2-yl)benzamido)propyl)amino)ethyl)benzamide]	116	511	2020	617	< 50	672	740		938			4930		

— PMC9820167, “Design and Synthesis of Conformationally Flexible Scaffold as Bitopic Ligands for Potent D3-Selective Antagonists” (International Journal of Molecular Sciences, 2022)
